Data on 13 molecules can be found in ChEMBL document CHEMBL1201862, “PubChem BioAssay data set” (2004).

Test [1] deals with HEK293. Put plainly: cells. As to conditions: Homo sapiens. In kind it is functional, cell-based.
For another test, the target named is Tumor necrosis factor (Homo sapiens, UniProt P01375). Put plainly: TNFa-triggered NF-kB activation inhibitors, SAR follow-up, cell-based, revised (AID 2337). In kind it is functional.
For test [2], the target named is Nucleotide-binding oligomerization domain-containing protein 2 (Homo sapiens, UniProt Q9HC29). Put plainly: NOD2 signaling inhibitors, cell-based, luminescence, uHTS, HEK293 (AID 1566). It is filed as functional.
Test [3] addresses T1, Nucleotide-binding oligomerization domain-containing protein 1 (Homo sapiens, UniProt Q9Y239).
T1 sequence (Q9Y239 whole entry): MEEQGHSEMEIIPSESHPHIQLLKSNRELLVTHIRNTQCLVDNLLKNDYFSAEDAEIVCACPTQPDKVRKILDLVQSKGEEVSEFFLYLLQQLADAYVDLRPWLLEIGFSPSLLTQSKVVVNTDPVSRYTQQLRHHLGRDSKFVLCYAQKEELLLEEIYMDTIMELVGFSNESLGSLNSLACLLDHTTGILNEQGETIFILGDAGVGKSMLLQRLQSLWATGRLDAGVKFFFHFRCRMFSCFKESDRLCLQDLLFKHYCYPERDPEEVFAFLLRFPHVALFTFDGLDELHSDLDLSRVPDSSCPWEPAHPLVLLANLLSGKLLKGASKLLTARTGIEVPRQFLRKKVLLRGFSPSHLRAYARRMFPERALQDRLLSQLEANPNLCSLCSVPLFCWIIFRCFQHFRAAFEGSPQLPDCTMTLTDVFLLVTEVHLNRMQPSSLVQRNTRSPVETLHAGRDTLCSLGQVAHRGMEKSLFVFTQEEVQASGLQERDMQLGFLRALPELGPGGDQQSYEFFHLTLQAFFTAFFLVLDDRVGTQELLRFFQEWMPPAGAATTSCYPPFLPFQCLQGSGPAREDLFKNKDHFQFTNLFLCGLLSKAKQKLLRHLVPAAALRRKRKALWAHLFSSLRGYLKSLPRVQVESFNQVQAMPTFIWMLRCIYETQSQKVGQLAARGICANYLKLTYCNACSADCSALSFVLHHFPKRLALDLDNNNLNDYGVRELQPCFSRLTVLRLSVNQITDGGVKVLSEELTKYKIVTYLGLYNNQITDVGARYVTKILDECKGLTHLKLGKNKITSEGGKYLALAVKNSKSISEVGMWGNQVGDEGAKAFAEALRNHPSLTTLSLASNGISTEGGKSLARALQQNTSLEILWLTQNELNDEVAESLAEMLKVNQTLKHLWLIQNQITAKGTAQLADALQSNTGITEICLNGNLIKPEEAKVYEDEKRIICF
Put plainly: NOD1 signaling inhibitors, SAR follow-up, revised (AID 2333). It is filed as functional.

The subject of test [4] is HEK293. Put plainly: cells. The note with it: Homo sapiens.
In test [5] the test system is HEK293. Put plainly: cells. In kind it is functional, cell-based. The note with it: Homo sapiens. The source holds these as a separate data set.
In test [6] the test system is HEK293. Put plainly: cells. In kind it is functional, cell-based. The note with it: Homo sapiens. This is another data set of the same source.
For test [7], the system named is HEK293. Put plainly: NOD1 signaling inhibitors, primary screen, cell-based, luminescence, uHTS (AID 1578). As to conditions: Homo sapiens. It is filed as functional.
The target of the next test is Major prion protein (Homo sapiens, UniProt P04156). In kind it is functional, cell-based.
Another test addresses Genome polyprotein (dengue virus type 2, UniProt P29990). Put plainly: Dengue-2 NS5 methyltransferase inhibitors, primary screen, biochemical, confirmation dose response (AID 588689). It is filed as functional.
The test system of test [8] is HEK293. Put plainly: NOD2 signaling inhibitors in MDP-stimulated cells, cell-based, uHTS, luminescence (AID 2001). In kind it is functional. The note with it: Homo sapiens.
Test [9] has as its target T2, High affinity choline transporter 1 (Homo sapiens, UniProt Q9GZV3).
T2 sequence (Q9GZV3 whole entry): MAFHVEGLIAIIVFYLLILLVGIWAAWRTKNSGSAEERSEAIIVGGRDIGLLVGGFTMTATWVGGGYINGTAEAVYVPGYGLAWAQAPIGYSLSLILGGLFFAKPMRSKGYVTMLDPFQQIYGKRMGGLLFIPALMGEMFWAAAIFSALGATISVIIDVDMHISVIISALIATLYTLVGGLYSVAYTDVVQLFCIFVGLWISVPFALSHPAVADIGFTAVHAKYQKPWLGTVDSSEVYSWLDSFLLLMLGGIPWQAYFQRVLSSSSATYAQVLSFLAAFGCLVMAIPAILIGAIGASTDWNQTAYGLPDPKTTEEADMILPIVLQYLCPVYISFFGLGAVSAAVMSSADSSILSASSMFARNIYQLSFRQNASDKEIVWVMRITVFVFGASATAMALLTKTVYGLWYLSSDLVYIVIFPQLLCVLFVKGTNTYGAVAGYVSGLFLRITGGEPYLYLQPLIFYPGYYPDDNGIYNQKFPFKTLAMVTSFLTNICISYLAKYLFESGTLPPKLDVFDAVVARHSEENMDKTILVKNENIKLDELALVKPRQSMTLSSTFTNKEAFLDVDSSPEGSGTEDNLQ
The test is described as follows: CHT inhibitors, dose response, cell-based, 5-point CRC, membrane potential dye (AID 504840). In kind it is functional.

Test [10] addresses T3, Disintegrin and metalloproteinase domain-containing protein 17 (Homo sapiens, UniProt P78536). Put plainly: ADAM17 protease inhibitors, dose response, counter-screen for ADAM10 exosite inhibitor project, biochemical, quenched FRET substrate (AID 743253).
Test [11] can be described thus: ADAM10 inhibitors, peptide cleavage, dose response, biochemical, QFRET (AID 743254).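 Note: ADAM10 enzyme with the DM2 quenched FRET peptide as substrate; EDANS fluorescence gain as the protease cuts the substrate; inhibitor potency against ADAM10 proteolytic activity.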
The target of another test is Beta-galactosidase (Escherichia coli, UniProt Q8VNN2). The test is described as follows: Dose response counterscreen for EBI2 assay utilizing the enzyme, b-galactosidase. It is filed as functional.
Test [12] deals with SWI/SNF-related matrix-associated actin-dependent regulator of chromatin subfamily A member 2 (Homo sapiens, UniProt P51531). Put plainly: Luminescence-based cell-based high throughput dose response assay to identify activators of the function of SWI/SNF related, matrix associated, actin dependent regulator of chromatin, subfamily a, member 2 (SMARCA2, BRM). In kind it is functional.

A short description of test [13]: Counterscreen for activators of the function of SWI/SNF related, matrix associated, actin dependent regulator of chromatin, subfamily a, member 2 (SMARCA2, BRM): Luminescence-based cell-based high throughput dose response assay to identify non-selective compounds using the VP16 reporter assay. It is filed as functional.
Test [14] addresses Beta-lactamase (Salmonella choleraesuis (strain SC-B67), UniProt Q5J463). The test is described as follows: Epi-absorbance-based counterscreen for selective VIM-2 inhibitors: dose response biochemical high throughput screening assay to identify inhibitors of TEM-1 serine-beta-lactamase. For orientation: A counterscreen serves to expose hits that act by an unwanted route or on another target.

The target in test [15] is T4, Beta-lactamase (Pseudomonas aeruginosa, UniProt Q79MP6). The test is described as follows: […] counterscreen for selective VIM-2 inhibitors: dose response biochemical high throughput screening assay to identify inhibitors of IMP-1 metallo-beta-lactamase.
Test [16] addresses Protein-tyrosine kinase 2-beta (Homo sapiens, UniProt Q14289).
Test [17] addresses T4, Beta-lactamase. Put plainly: IMP-1 metallo-beta-lactamase inhibitors, dose response, selectivity assay for VIM-2 inhibitor project, biochemical, epi-absorbance (AID 1920).
Test [18] can be described thus: cytotoxicity toward NIH3T3 fibroblasts, dose response, counter-screen, cell-based, ATP luminescence, mouse fibroblasts (AID 2010).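 Note: cells exposed to compound for about 90 hours before reading.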 It is filed as functional.
Test [19] in a line: inhibitors of intracellular T. cruzi replication, confirmation, NIH3T3 host cells, beta-gal luminescence (AID 2044).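 Note: intracellular parasites grown in NIH/3T3 mouse fibroblasts as host cells; luminescent beta-galactosidase reporter signal from transgenic T. cruzi replicating inside host cells; inhibitors lower the luminescence signal.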 In kind it is functional, cell-based.
Test [20] has as its target T3, Disintegrin and metalloproteinase domain-containing protein 17. The test is described as follows: exosite inhibitors of ADAM17, dose response, biochemical (AID 743260).
In the next test the target is T5, Protein skinhead-1 (Caenorhabditis elegans, UniProt P34707).
T5 sequence (P34707 whole entry): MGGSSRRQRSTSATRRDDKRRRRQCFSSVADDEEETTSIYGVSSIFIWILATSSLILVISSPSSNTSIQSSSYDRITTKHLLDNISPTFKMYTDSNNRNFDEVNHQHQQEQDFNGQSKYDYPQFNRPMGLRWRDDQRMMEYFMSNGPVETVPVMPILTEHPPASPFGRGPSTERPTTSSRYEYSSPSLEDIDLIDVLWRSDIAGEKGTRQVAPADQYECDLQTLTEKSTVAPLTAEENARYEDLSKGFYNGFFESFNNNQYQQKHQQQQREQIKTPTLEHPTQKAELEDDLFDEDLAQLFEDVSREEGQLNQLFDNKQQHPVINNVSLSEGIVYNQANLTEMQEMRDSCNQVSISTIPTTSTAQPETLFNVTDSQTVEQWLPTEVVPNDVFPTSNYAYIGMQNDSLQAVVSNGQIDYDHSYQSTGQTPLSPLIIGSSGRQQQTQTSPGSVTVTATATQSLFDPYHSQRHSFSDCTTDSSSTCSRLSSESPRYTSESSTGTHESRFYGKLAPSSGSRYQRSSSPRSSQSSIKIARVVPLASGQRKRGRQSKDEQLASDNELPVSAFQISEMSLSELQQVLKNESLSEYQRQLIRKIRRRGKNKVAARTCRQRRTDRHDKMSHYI
It is filed as functional.

Test [21] is described as follows: ADAM10 protease inhibitors, dose response, selectivity assay for ADAM17 exosite inhibitor project, biochemical, FRET peptide substrate, recombinant human ADAM10 (AID 743259).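 Note: ADAM10 enzyme cleaving a FRET peptide substrate.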

Activity calls are given as the source filed them. Some results are limits rather than exact numbers.

For `COc1cc(C(=O)Nc2scc(-c3ccc(Br)cc3)c2C(=O)O)cc(OC)c1OC`, the IC50 is 19 µM (active) in the test with HEK293 [1]; 6.88 µM (active) at Tumor necrosis factor; 5.83 µM (active) in [3]; > 138 µM (inactive) in the test “cells”; 13.6 µM (active) in the test with HEK293 [4]; > 20 µM (inactive) in the test with HEK293 [5]. In addition, the IC50 in the test on HEK293 [6] is > 20 µM (inactive); on Major prion protein, 5.71 µM (active); on Genome polyprotein, 58 µM (active); in the test with HEK293 [8] it was 13.2 µM (inactive). For the same molecule, the EC50 in test [2] is 13.9 µM (active); in the test with HEK293 [7], 3.97 µM (active).
Take `Cc1csc(NC(=O)CSc2nc(C(C)C)nc3ccccc23)n1`: the IC50 in test [9] is 7.94 µM (active); in “cells”, 69.1 µM (inactive); on Major prion protein, 2.05 µM (active).
For `CCC1CO/C(=C(\C(Cl)=C(Cl)Cl)[N+](=O)[O-])N1` (stereo unspecified), the IC50 in [10] was 27.9 µM (inactive); in test [11] it was 14.9 µM (inactive).
On to `O=C(c1ccc2ccccc2c1)N1CCN(c2ccc(C(F)(F)F)cn2)CC1`, for which, at Beta-galactosidase, the IC50 is > 80 µM (inactive).
Consider `COC(=O)Nc1ccc(OCc2ccccc2)cc1`, for which the EC50 in test [12] and in test [13] was > 91.2 µM (inactive) in each case.
Consider `C=C(c1cccc2ccccc12)P(=O)(O)O`, for which the IC50 was > 59.6 µM (inactive) on Beta-lactamase [14], > 59.6 µM (inactive) at Beta-lactamase [15], 27 µM (not active) in [16] and > 59.6 µM (inactive) on Beta-lactamase [17].
In the case of `O=C(c1cc2ccccc2o1)N1CCN(c2ccccc2Cl)CC1`, the IC50 on Beta-galactosidase is > 80 µM (inactive).
As to `CC(C)(C)OC(=O)NCCCC[C@H](NC(=O)c1[nH]cnc1C(=O)NC(c1ccccc1)c1ccccc1)C(=O)OC(C)(C)C`, the IC50 in test [10] was > 69.5 µM (inactive); in test [11], 10.6 µM (inactive). The EC50 is > 60 µM (not active) in test [18] and 3.48 µM (active) in [19].
For the molecule `O=C(c1cccs1)N1CCc2c([nH]c3ccccc23)C1c1ccc(Cl)cc1` (stereo unspecified), the IC50 was > 69.5 µM (inactive) in test [10]; > 69.5 µM (inactive) in test [20]; > 100 µM (inactive) at Protein skinhead-1; 32.4 µM (inactive) in [21]; > 69.5 µM (inactive) in test [11].
With `CCC1NC(=O)c2cc3ccccc3cc2-n2c1nc1cc(C)cc(C)c1c2=O` (stereo unspecified), at Beta-galactosidase, the IC50 is > 80 µM (inactive).
For `Nc1nc2ccc(Cl)cc2cc1C(=O)NCc1ccccc1Br`, the IC50 is 46.3 µM (inactive) in the test “cells” and 7.35 µM (active) on Major prion protein.
With `Cc1ccc(-c2cc(C(=O)NN=Cc3cccc(OCc4ccccc4)c3)[nH]n2)cc1C`, the IC50 in test [20] and in test [21] was > 69.5 µM (inactive) in each case.
Take `O=C(CSc1nc2ccccc2s1)N/N=C/c1ccco1`: the EC50 in test [12] and in [13] was > 91.2 µM (inactive) in each case.

The IC50 is the concentration that gives 50% inhibition. Usually EC50 stands for the concentration at which the effect is half-maximal.
